PMC11783601, “Analogue-Sensitive Inhibition of Histone Demethylases Uncovers Member-Specific Function in Ribosomal Protein Synthesis” (Journal of the American Chemical Society, 2025)
Entries after “also recorded” stand apart in the source; their conditions may differ. Read-outs that look alike come from different tables or passages of the source.

What was measured:
[1] = molecular target: T1, wild type KDM4D (Homo sapiens, UniProt Q6B0I6); experiment: MALDI-MS demethylase assay on H3K9me3 peptide; type: biochemical
T1 construct: human KDM4B and KDM4D jmjC catalytic domain for bacterial; Strep II (N); made in house; host or cells: E. coli Rosetta [DE3]
T1 sequence (Q6B0I6 146-312 limits assumed): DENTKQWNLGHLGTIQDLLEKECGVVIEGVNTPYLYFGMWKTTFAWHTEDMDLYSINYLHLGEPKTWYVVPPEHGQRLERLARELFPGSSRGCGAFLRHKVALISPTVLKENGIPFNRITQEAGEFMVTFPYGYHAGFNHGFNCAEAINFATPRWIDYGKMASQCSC
Method: We next tested the inhibitory potential of 6 against these proteins using H3K9me3 peptide substrate and analyzed it by MALDI-MS. […] We subsequently examined the ability of asKDM4 variants to demethylate full-length histones extracted from mammalian cells. HEK293T cells were cultured in the presence of 10 μM n-octyl IOX1, a broad-spectrum inhibitor of demethylases,[41],[42] to generate a hypermethylated proteome (Figure S19). The extracted histone was incubated with the as variants individually, each with or without 6, and the extent of demethylation was analyzed by Western blot using the H3K9me3-specific antibody. […]
assay (Biorad) kit with BSA concentrations as a standard. […]
8. Demethylase activity of the wild type and mutant KDM4 proteins on peptide substrate To monitor enzymatic activity, a demethylase activity assay was optimized and then observed through MALDI-TOF.7 Each histone demethylase assay sample included either wild type or mutant enzyme (10µM KDM4A, 7.5µM KDM4C, 10µM KDM4D, or 1µM KDM4E), 10 µM peptide, 200 µM 2OG, 50 mM Tris pH 8, […], 0-200µM NOG analogue, and 2 mM L-ascorbic acid with a total assay volume of 10 µL. Fe(II) supplement and L-ascorbic acid […]
Lastly, the 2OG and peptide were […]
positive mode and analyzed on Bruker FlexAnalysis software. The percent demethylated peptide […]
the multiple demethylation events on the peptide. […]

[2] = HPLC stability of compound in assay buffer; type: physicochemical; details: HPLC traces at t=0 hr. and t=5 hr. incubation; integrity confirmed by LC-MS
Method: Supplementary Figure S13. HPLC traces of NOL 6 at t=0 hr. (red) and t=5 hr. (blue) incubation
The compound integrity was further
Supplementary Figure S14. MALDI-TOF spectra for demethylase activity of wild type KDM4C
(A) and KDM4C-F187A mutant (B). In each case, topmost panel is assay without the cofactor
2OG (negative control), middle panel is assay with the cofactor (positive control) and the bottom
mutant completely at 50 µM concentration (B). The demethylase activity of F187A mutant is
(1 picture or pasted object on this page, not shown here)

[3] = molecular target: T2, full-length wild type KDM4C (Homo sapiens, UniProt Q9H3R0); experiment: H3K9me3 Western blot of nuclear extracts of transfected HEK293T cells; type: cell-based
T2 construct: HEK293T cells were transfected with full-length wild type KDM4B-E or their respective mutants; host or cells: HEK293T
T2 sequence (Q9H3R0 whole entry): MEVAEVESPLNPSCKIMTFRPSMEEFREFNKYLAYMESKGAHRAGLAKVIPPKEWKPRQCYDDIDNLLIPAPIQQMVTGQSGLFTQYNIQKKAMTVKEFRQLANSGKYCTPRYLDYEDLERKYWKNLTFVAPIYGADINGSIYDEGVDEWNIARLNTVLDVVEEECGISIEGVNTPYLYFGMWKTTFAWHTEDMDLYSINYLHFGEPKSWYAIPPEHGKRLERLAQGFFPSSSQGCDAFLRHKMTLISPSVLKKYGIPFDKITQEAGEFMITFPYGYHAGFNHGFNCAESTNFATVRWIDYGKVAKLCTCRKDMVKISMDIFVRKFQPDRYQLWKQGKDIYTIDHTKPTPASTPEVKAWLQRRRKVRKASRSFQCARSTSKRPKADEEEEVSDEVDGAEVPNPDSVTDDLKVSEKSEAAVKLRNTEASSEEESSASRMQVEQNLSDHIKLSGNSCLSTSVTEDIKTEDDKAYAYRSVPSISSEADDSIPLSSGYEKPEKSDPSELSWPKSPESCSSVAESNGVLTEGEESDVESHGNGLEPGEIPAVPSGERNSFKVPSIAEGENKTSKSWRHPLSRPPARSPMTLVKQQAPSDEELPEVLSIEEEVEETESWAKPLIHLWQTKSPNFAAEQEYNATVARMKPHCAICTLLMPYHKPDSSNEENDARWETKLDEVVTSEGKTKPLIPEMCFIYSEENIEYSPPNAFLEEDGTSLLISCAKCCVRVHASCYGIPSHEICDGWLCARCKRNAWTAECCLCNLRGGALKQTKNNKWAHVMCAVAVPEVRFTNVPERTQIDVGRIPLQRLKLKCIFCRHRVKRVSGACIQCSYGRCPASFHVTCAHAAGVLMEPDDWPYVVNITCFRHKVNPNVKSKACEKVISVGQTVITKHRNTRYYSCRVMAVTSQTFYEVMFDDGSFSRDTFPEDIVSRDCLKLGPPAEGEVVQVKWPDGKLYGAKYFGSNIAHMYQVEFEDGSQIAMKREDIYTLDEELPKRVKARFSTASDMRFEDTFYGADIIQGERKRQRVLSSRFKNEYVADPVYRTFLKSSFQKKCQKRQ
From the text: (§1) KDM4B and C are structurally homologous to KDM4A, and KDM4D and E have a catalytic pocket near-identical to that of KDM4A but lack the Tudor and PHD domains known to bind trimethylated lysine in histones (Figure 1B).[11] HEK293T cells were transfected with full-length wild type KDM4B-E or their respective mutants. Western blot analysis of nuclear preparations using the H3K9me3 antibody confirmed all of the proteins to be catalytically active (Figures 4G–N and S32–S35).
(§2) KDM4A mammalian expression plasmid in CMV vector was purchased from Addgene (plasmid #24180). KDM4B mammalian expression plasmid in CMV vector was purchased from Addgene (plasmid #24181). KDM4C mammalian expression plasmid in CMV vector was purchased from Addgene (plasmid #24214). KDM4D mammalian expression plasmid in pReciever vector was purchased from Genecopoia (EX-Z0917-M06.) KDME mammalian expression plasmid in pRP-EXP was designed from Vector Builder. The KDM4A-F185A, KDM4B-F186A, KDM4C -F187A, KDM4D-F189A, and KDM4E F186A mutants were generated using Quikchange Lightening Mutagenesis Kit (Agilent) according to manufacturer’s protocol and confirmed by Sanger […]
(§3) HEK293T/17 cells (ATCC) were grown in Delbucco’s Modified Eagle Medium (DMEM) (Corning) with 10% FBS at 37 °C (Corning), 5% CO2, and 95% relative humidity in a 6-well cell culture plate. When cells reached 90% confluency, 3 µg of plasmid and 6 µg lipofectamine 2000 (Invitrogen: 11668019) were incubated with 100 µL OptiMem. After 5 minutes the plasmid and lipofectamine were combined and incubated at room temperature for 20 minutes and added to the cell culture disk. Cells were returned to the incubator to grow for 4-6 hours. This was followed by treatment of compound treatment (n-octyl IOX121,22 or a specific NOG ester) at indicated concentrations and further culture for specified time. The media was removed, and cells were washed with ice cold PBS (Corning), then trypsinized with TrpLE Express (Gibco). The trypsinization reaction was quenched with DMEM 10% FBS and cells were pelleted then washed once with ice cold PBS. The nuclear extracts were generated by first resuspending the cell pellets in 700 µL nuclear isolation buffer (15 mM Tris pH 7.5, 60 mM KCl, 15 mM NaCl, 5 mM MgCl2, 1 mM CaCl2, 1mm DTT, 2 mM Na3Van, 250 mM sucrose, 1X Pierce protease inhibitor (Thermo Fisher #PIA32955), 1 mM PMSF, 0.3% NP40 diluted to volume with MilliQ H2O) and incubated on ice for 5 minutes.23 The samples were then pelleted by centrifugation at 2000 rcf for 5 minutes.
(§4) The supernatant was removed, and the pelleted nuclei were resuspended in 200 µL Pierce IP lysis buffer (Thermo Fisher #87787) containing 1X Pierce protease inhibitor and left on ice for 5 minutes. The nuclei were then sonicated at 100% amp for 5 minutes (pulsed 1 minute “on”, 20 seconds “rest”) using a Qsonica-Q700, cuphorn sonicator. The samples were pelleted once again at 2000 rcf for 5 minutes and the supernatant containing the nuclear extracts were collected. MgCl2 (1M) solution was added to each sample give a final concentration of 6mM. […]
(§5) Prism with the corresponding bars representing the mean and standard deviation of the population.
(§6) For the time dependent imaging, cells containing the transfected KDM4A mutant were identified by their HA signal. These cells were used to create a selection which was then imposed onto the respective H3K9me3 or BrdU images. The mean signal was then measured for H3K9me3 or BrdU only within the cells expressing the KDM4A mutant. To compare changes in H3K9me3 or BrdU between trials, the quantification values were normalized to the mean signal at t=0. The normalized, mean signal and error for H3K9me3 or BrdU were then plotted in GraphPad Prism.
(§7) 21. General protocol for Western blotting
(§8) Assay samples were mixed with appropriate volume of 4X Laemmli Dye (Bio-Rad), heated at 95 °C for 5 minutes and loaded onto 4–12% Criterion™ XT Bis-Tris protein gels (Bio-Rad #3450123) or in-house prepared SDS-polyacrylamide gel and subjected to electrophoresis […]

[4] = molecular target: T3, full-length wild type KDM4D (Homo sapiens, UniProt Q6B0I6); experiment: as above; type: cell-based
T3 construct: HEK293T cells were transfected with full-length wild type KDM4B-E or their respective mutants; host or cells: HEK293T
T3 sequence (Q6B0I6 whole entry): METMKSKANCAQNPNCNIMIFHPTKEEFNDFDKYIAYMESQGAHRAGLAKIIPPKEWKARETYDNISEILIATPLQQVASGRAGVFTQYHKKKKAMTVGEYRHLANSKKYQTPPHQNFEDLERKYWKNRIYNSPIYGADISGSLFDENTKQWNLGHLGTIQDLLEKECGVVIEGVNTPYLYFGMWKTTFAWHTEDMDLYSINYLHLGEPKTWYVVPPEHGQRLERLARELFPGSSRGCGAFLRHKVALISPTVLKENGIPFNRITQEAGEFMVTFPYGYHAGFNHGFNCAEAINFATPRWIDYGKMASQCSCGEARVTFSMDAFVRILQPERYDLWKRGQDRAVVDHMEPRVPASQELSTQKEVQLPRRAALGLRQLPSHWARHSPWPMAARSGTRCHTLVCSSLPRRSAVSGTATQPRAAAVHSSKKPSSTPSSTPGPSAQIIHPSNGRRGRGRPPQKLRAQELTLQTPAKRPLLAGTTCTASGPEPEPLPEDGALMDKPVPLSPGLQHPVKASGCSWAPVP
From the text: as §1, §2, §3, §4, §5, §6, §7, §8

[5] = molecular target: T4, full-length wild type KDM4B (Homo sapiens, UniProt O94953); experiment: as above; type: cell-based; details: n-octyl IOX1 10 μM
T4 construct: HEK293T cells were transfected with full-length wild type KDM4B-E or their respective mutants; host or cells: HEK293T
T4 sequence (O94953 whole entry): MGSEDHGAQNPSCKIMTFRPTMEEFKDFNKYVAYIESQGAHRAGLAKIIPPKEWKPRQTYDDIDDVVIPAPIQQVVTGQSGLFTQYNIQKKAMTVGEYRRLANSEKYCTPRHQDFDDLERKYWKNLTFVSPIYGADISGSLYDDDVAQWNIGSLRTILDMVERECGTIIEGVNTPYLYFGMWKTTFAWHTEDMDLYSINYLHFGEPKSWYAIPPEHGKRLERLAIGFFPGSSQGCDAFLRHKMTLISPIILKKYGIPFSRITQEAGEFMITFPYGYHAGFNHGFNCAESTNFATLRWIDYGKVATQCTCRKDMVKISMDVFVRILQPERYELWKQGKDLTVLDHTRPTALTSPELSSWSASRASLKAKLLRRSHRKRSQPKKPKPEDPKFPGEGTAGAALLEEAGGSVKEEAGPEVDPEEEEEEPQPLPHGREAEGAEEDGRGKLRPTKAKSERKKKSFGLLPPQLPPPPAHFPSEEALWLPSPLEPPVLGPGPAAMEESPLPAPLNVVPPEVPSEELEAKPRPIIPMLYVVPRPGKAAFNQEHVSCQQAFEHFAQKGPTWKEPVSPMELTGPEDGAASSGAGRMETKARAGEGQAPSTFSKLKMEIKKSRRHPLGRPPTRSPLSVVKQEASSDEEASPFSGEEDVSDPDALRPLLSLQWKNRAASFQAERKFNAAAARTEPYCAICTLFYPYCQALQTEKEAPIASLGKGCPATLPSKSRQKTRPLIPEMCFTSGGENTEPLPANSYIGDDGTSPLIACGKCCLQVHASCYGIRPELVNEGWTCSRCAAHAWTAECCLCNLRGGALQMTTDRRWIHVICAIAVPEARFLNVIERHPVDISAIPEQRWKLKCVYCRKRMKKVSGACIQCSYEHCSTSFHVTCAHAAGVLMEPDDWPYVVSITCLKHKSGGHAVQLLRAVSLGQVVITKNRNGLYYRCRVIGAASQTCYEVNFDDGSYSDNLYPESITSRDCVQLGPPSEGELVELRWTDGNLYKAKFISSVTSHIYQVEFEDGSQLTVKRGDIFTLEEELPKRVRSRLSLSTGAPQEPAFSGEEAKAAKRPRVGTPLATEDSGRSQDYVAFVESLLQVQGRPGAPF
From the text: as §1, §2, §3, §4, §5, §6, §7, §8

[6] = molecular target: T5, full-length wild type KDM4E (Homo sapiens, UniProt B2RXH2); experiment: as above; type: cell-based
T5 construct: HEK293T cells were transfected with full-length wild type KDM4B-E or their respective mutants; host or cells: HEK293T
T5 sequence (B2RXH2 whole entry): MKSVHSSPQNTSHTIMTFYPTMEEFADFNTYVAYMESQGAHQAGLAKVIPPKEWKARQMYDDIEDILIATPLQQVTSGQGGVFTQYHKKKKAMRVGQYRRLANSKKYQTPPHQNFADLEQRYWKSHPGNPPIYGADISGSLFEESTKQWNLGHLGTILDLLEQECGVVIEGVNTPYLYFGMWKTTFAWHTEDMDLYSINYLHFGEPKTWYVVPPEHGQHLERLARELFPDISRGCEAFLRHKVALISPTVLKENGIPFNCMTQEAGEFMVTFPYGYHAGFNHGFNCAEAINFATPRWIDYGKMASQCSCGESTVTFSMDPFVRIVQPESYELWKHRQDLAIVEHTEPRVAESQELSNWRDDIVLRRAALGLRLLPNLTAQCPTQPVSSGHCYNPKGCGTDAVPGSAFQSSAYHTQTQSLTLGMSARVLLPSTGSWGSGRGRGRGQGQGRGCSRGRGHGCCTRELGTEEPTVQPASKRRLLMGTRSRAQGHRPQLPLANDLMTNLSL
From the text: as §1, §2, §3, §4, §5, §6, §7, §8

CC(C)CC(NC(=O)C(=O)O)C(=O)O (stereo not shown) [compound 6, N-oxalyl leucine]
inhibition of wild type KDM4D [1]: fully refractory
inhibition of wild type KDM4D ([1]; listed as NOG 6): does not inhibit
stability of the compound in assay buffer [2]: confirm the stability

CCCCCCCCOC(=O)c1ccc(O)c2ncccc12 [n-octyl IOX1]
inhibition of wild type KDM4C H3K9me3 demethylation [3]: Dose-dependent inhibition; also recorded: significantly reduced
inhibition of wild type KDM4D H3K9me3 demethylation [4]: Dose-dependent inhibition; also recorded: significantly reduced
inhibition of wild type KDM4B H3K9me3 demethylation [5]: Dose-dependent inhibition; also recorded: significantly reduced
inhibition of wild type KDM4E H3K9me3 demethylation [6]: Dose-dependent inhibition; also recorded: significantly reduced
